{
  "source": "patent US20240216401A1",
  "about": "“COMBINATION THERAPY BY USING AKR1C3-ACTIVATED COMPOUND WITH IMMUNE CHECKPOINT INHIBITOR” (OBI Pharma, Inc., priority 2021, published 2024)",
  "key": {"[1]": {"system": "CTL cells (CD45^+CD8^+ T cells) in tumor-infiltrating lymphocytes", "experiment": "Example 2: flow cytometry, percentage of CTL cells in TILs", "type": "in vivo, Mus musculus", "conditions": "G3: 1 mg/kg", "experimental": "(§1) Mice were sacrificed by CO2 euthanasia at the end of the study duration, and the connective tissue around tumor was resected. The tumor samples were then weighed and cut equally into three sections if the tumor weight over 400 mg. The tumor tissue was prepared for the isolation of tumor-infiltrating lymphocytes (TILs). The rest of one section was fixed in 10% formaldehyde and embedded in paraffin; the other was stored at a temperature below −70° C.\n(§2) The tumor samples were dissected into smaller fragments using scalpels and then digested with a cocktail of collagenase, DNase I, and Hyaluronidase (Collagenase #C5138, DNase I #D5025, Hyaluronidase #H6254, SigmaAldrich) for at least 2 hours.\n(§3) Cells were stained with the fluorescently conjugated surface antibodies and incubated for 30 minutes at 4° C., and then resuspended in staining buffer for flow cytometric analysis. Flow cytometry was done using a Navios EX Flow Cytometer (Beckman Coulter). Data were analyzed using the Kaluza Analysis Software (Beckman Coulter)."}, "[2]": {"system": "Dendritic cells in tumor-infiltrating lymphocytes", "experiment": "Example 2: flow cytometry, percentage of Dendritic cells in TILs", "type": "in vivo, Mus musculus", "conditions": "individual animals and Mean", "experimental": "as §1, §2, §3"}, "[3]": {"conditions": "G2: OBI-3424 (0.3 mg/kg), 0.3 mg/kg"}, "[4]": {"conditions": "G2: OBI-3424 (0.3 mg/kg), 0.3 mg/kg, mean"}, "[5]": {"conditions": "G3: OBI-3424 (1 mg/kg), 1 mg/kg"}, "[6]": {"conditions": "G3: OBI-3424 (1 mg/kg), 1 mg/kg, mean"}},
  "note": "Where “and” joins values, the source holds several entries; their conditions need not be identical. Equal values may be shown once.",
  "data": [
    {"compound": "C[C@H](OP(=O)(N1CC1)N1CC1)c1ccc([N+](=O)[O-])c(Oc2cccc(C(=O)N(C)C)c2)c1", "note": "[OBI-3424, (S)-1-(3-(3-N,N-dimethylaminocarbonyl)phenoxyl-4-mtrophenyl)-1-ethyl-N,N′-bis(ethylene)phosphoramidate]", "values": [
      {"measurement": "IFN-γ^+ CTL cells (CD45^+ CD8^+ IFN-γ^+) Cell count (×10^5)", "setting": "[1]; group mean", "value": "0.15 ×10^5"},
      {"measurement": "IFN-γ^+ CTL cells (CD45^+ CD8^+ IFN-γ^+) Total %", "setting": "[1]; group mean", "value": 0.21, "unit": "%"},
      {"measurement": "PD-1^+ CTL cells (CD45^+CD8^+ PD-1^+) CTL Gated %", "setting": "[1]; group mean", "value": 75.93, "unit": "%"},
      {"measurement": "PD-1^+ CTL cells (CD45^+CD8^+ PD-1^+) Cell count (×10^5)", "setting": "[1]; group mean", "value": "19.17 ×10^5"},
      {"measurement": "PD-1^+ CTL cells (CD45^+CD8^+ PD-1^+) Total %", "setting": "[1]; group mean", "value": 24.78, "unit": "%"},
      {"measurement": "CD25^+ CTL cells (CD45^+ CD8^+CD25^+) Cell count (×10^5)", "setting": "[1]; individual mice", "value": "0.43 ×10^5 and 1.29 ×10^5 and 0.89 ×10^5 and 1.55 ×10^5 and 1.91 ×10^5 and 1.90 ×10^5"},
      {"measurement": "CD25^+ CTL cells (CD45^+CD8^+ CD25^+) CTL Gated %", "setting": "[1]; individual mice", "value": "3.38% and 2.85% and 4.07% and 7.29% and 6.05% and 7.84%"},
      {"measurement": "CD25^+ CTL cells (CD45^+CD8^+ CD25^+) Total %", "setting": "[1]; individual mice", "value": "1.49% and 1.02% and 1.26% and 1.57% and 2.57% and 2.34%"},
      {"measurement": "CD69^+ CTL cells (CD45^+ CD8^+CD69^+) CTL Gated %", "setting": "[1]; individual mice", "value": "80.80% and 70.50% and 83.69% and 59.32% and 76.33% and 60.89%"},
      {"measurement": "CD69^+ CTL cells (CD45^+ CD8^+CD69^+) Cell count (×10^5)", "setting": "[1]; individual mice", "value": "10.34 ×10^5 and 31.84 ×10^5 and 18.33 ×10^5 and 12.61 ×10^5 and 24.09 ×10^5 and 14.69 ×10^5"},
      {"measurement": "CD69^+ CTL cells (CD45^+ CD8^+CD69^+) Total %", "setting": "[1]; individual mice", "value": "35.67% and 25.23% and 25.96% and 12.76% and 32.38% and 18.14%"},
      {"measurement": "CTL cells (CD45^+CD8^+) CD45^+ Gated %", "setting": "[1]; individual mice", "value": "66.02% and 53.39% and 62.97% and 38.03% and 65.33% and 49.11%"},
      {"measurement": "CTL cells (CD45^+CD8^+) Cell count (×10^5)", "setting": "[1]; individual mice", "value": "12.68 ×10^5 and 40.30 ×10^5 and 21.83 ×10^5 and 22.61 ×10^5 and 32.02 ×10^5 and 23.10 ×10^5"},
      {"measurement": "CTL cells (CD45^+CD8^+) Total %", "setting": "[1]; individual mice", "value": "31.93% and 30.92% and 22.88% and 43.04% and 28.52%"},
      {"measurement": "Granzyme B^+ CTL cells (CD45^+ CD8^+GrB+) CTL Gated %", "setting": "[1]; individual mice", "value": "90.46% and 99.18% and 89.16% and 96.01% and 95.94% and 58.25%"},
      {"measurement": "Granzyme B^+ CTL cells (CD45^+ CD8^+GrB+) Cell count (×10^5)", "setting": "[1]; individual mice", "value": "11.76 ×10^5 and 39.25 ×10^5 and 20.44 ×10^5 and 21.59 ×10^5 and 31.75 ×10^5 and 14.00 ×10^5"},
      {"measurement": "Granzyme B^+ CTL cells (CD45^+ CD8^+GrB+) Total %", "setting": "[1]; individual mice", "value": "40.55% and 31.10% and 28.95% and 21.85% and 17.29%"},
      {"measurement": "IFN-γ^+ CTL cells (CD45^+ CD8^+ IFN-γ^+) CTL Gated %", "setting": "[1]; individual mice", "value": "0.87% and 0.63% (2×) and 0.85% and 0.20% and 0.61%"},
      {"measurement": "IFN-γ^+ CTL cells (CD45^+ CD8^+ IFN-γ^+) Cell count (×10^5)", "setting": "[1]; individual mice", "value": "0.11 ×10^5 and 0.25 ×10^5 and 0.20 ×10^5 and 0.1 ×10^5 and 0.07 ×10^5 and 0.15 ×10^5"},
      {"measurement": "IFN-γ^+ CTL cells (CD45^+ CD8^+ IFN-γ^+) Total %", "setting": "[1]; individual mice", "value": "0.39% and 0.20% and 0.28% and 0.14% and 0.09% and 0.18%"},
      {"measurement": "PD-1^+ CTL cells (CD45^+CD8^+ PD-1^+) CTL Gated %", "setting": "[1]; individual mice", "value": "58.64% and 62.98% and 80.96% and 86.30% and 72.97% and 93.75%"},
      {"measurement": "PD-1^+ CTL cells (CD45^+CD8^+ PD-1^+) Cell count (×10^5)", "setting": "[1]; individual mice", "value": "7.44 ×10^5 and 25.38 ×10^5 and 17.68 ×10^5 and 19.51 ×10^5 and 23.37 ×10^5 and 21.66 ×10^5"},
      {"measurement": "PD-1^+ CTL cells (CD45^+CD8^+ PD-1^+) Total %", "setting": "[1]; individual mice", "value": "25.64% and 20.11% and 25.04% and 19.75% and 31.41% and 26.74%"},
      {"measurement": "CD86^+ DC cells (CD45^+CD11c^+CD86^+) Cell count", "setting": "[2]; [3]", "value": "6.36 ×10^5 and 14.34 ×10^5 and 27.59 ×10^5 and 1.25 ×10^5 and 15.63 ×10^5 and 4.71 ×10^5"},
      {"measurement": "CD86^+ DC cells (CD45^+CD11c^+CD86^+) Total %", "setting": "[2]; [3]", "value": "3.27% and 7.01% and 5.11% and 5.82% and 6.34% and 6.50%"},
      {"measurement": "CD91^+ DC cells (CD45^+CD11c^+CD91^+) Cell count", "setting": "[2]; [3]", "value": "0.18 ×10^5 and 0.16 ×10^5 and 0.54 ×10^5 and 0.02 ×10^5 and 0.22 ×10^5 and 0.04 ×10^5"},
      {"measurement": "CD91^+ DC cells (CD45^+CD11c^+CD91^+) Total %", "setting": "[2]; [3]", "value": "0.09% (2×) and 0.08% (2×) and 0.10% and 0.06%"},
      {"measurement": "DC cells (CD45^+CD11c^+) CD45+ Gated %", "setting": "[2]; [3]", "value": "32.90% and 30.81% and 44.83% and 19.60% and 24.30% and 36.70%"},
      {"measurement": "DC cells (CD45^+CD11c^+) Cell count", "setting": "[2]; [3]", "value": "10.62 ×10^5 and 23.35 ×10^5 and 105.79 ×10^5 and 2.74 ×10^5 and 25.44 ×10^5 and 9.18 ×10^5"},
      {"measurement": "DC cells (CD45^+CD11c^+) Total %", "setting": "[2]; [3]", "value": "5.46% and 11.42% and 19.59% and 12.80% and 10.32% and 12.66%"},
      {"measurement": "CD86^+ DC cells (CD45^+CD11c^+CD86^+) Cell count", "setting": "[2]; [4]", "value": "11.65 ×10^5"},
      {"measurement": "CD86^+ DC cells (CD45^+CD11c^+CD86^+) Total %", "setting": "[2]; [4]", "value": 5.68, "unit": "%"},
      {"measurement": "CD91^+ DC cells (CD45^+CD11c^+CD91^+) Cell count", "setting": "[2]; [4]", "value": "0.19 ×10^5"},
      {"measurement": "CD91^+ DC cells (CD45^+CD11c^+CD91^+) Total %", "setting": "[2]; [4]", "value": 0.08, "unit": "%"},
      {"measurement": "DC cells (CD45^+CD11c^+) CD45+ Gated %", "setting": "[2]; [4]", "value": 31.52, "unit": "%"},
      {"measurement": "DC cells (CD45^+CD11c^+) Cell count", "setting": "[2]; [4]", "value": "29.52 ×10^5"},
      {"measurement": "DC cells (CD45^+CD11c^+) Total %", "setting": "[2]; [4]", "value": 12.04, "unit": "%"},
      {"measurement": "CD86^+ DC cells (CD45^+CD11c^+CD86^+) Cell count", "setting": "[2]; [5]", "value": "2.23 ×10^5 and 10.59 ×10^5 and 5.46 ×10^5 and 6.73 ×10^5 and 6.98 ×10^5 and 7.11 ×10^5"},
      {"measurement": "CD86^+ DC cells (CD45^+CD11c^+CD86^+) Total %", "setting": "[2]; [5]", "value": "7.68% and 8.39% and 7.73% and 6.81% and 9.38% and 8.78%"},
      {"measurement": "CD91^+ DC cells (CD45^+CD11c^+CD91^+) Cell count", "setting": "[2]; [5]", "value": "0.04 ×10^5 (2×) and 0.10 ×10^5 and 0.06 ×10^5 (2×) and 0.08 ×10^5"},
      {"measurement": "CD91^+ DC cells (CD45^+CD11c^+CD91^+) Total %", "setting": "[2]; [5]", "value": "0.14% and 0.08% (2×) and 0.09% and 0.06% and 0.07%"},
      {"measurement": "DC cells (CD45^+CD11c^+) CD45+ Gated %", "setting": "[2]; [5]", "value": "23.54% and 31.09% and 41.01% and 19.89% and 35.18% and 28.58%"},
      {"measurement": "DC cells (CD45^+CD11c^+) Cell count", "setting": "[2]; [5]", "value": "4.40 ×10^5 and 23.57 ×10^5 and 13.84 ×10^5 and 12.22 ×10^5 and 16.67 ×10^5 and 14.15 ×10^5"},
      {"measurement": "DC cells (CD45^+CD11c^+) Total %", "setting": "[2]; [5]", "value": "15.16% and 18.68% and 19.60% and 12.37% and 22.41% and 17.47%"},
      {"measurement": "CD86^+ DC cells (CD45^+CD11c^+CD86^+) Cell count", "setting": "[2]; [6]", "value": "6.52 ×10^5"},
      {"measurement": "CD86^+ DC cells (CD45^+CD11c^+CD86^+) Total %", "setting": "[2]; [6]", "value": 8.13, "unit": "%"},
      {"measurement": "CD91^+ DC cells (CD45^+CD11c^+CD91^+) Cell count", "setting": "[2]; [6]", "value": "0.06 ×10^5"},
      {"measurement": "CD91^+ DC cells (CD45^+CD11c^+CD91^+) Total %", "setting": "[2]; [6]", "value": 0.09, "unit": "%"},
      {"measurement": "DC cells (CD45^+CD11c^+) CD45+ Gated %", "setting": "[2]; [6]", "value": 29.88, "unit": "%"},
      {"measurement": "DC cells (CD45^+CD11c^+) Cell count", "setting": "[2]; [6]", "value": "14.14 ×10^5"},
      {"measurement": "DC cells (CD45^+CD11c^+) Total %", "setting": "[2]; [6]", "value": 17.62, "unit": "%"}
    ]}
  ]
}
